From article PMC12516379, “Rotamer-Controlled Self-Immolative Linkers Enable Tunable Release of Neurosteroid Oxime Prodrugs” (ACS Medicinal Chemistry Letters, 2025)

Legend:
[1] = Stability in acetate buffer pH 5.0 at room temperature via HPLC (UV); format: physicochemical
Outline: (§1)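 Progesterone prodrugs dissolved at 1 mg/mL in PBS (pH 7.03) or 10 mM acetate buffer (pH 5.0), kept at RT and reinjected over time, HPLC-UV AUC at 254 nm. Percent parent remaining; k from ln(%remaining) vs time, pseudo-first-order t1/2 = 0.693/k; duplicates averaged.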

[2] = Stability in PBS at room temperature via HPLC (UV); format: physicochemical; conditions: phosphate-buffered saline (DPBS)
Outline: as §1

[3] = Formation of progesterone oxime 3 from prodrugs in human plasma at 37 °C over 2 h; format: in vitro ADME; conditions: 2 h period
Procedure: Given the greater biological relevance of plasma, we focused on quantifying the formation of progesterone and allopregnanolone oxime in human plasma at 37 °C over a 2 h period. Results for selected progesterone prodrugs are presented in Figure A–C, illustrating the broad range of plasma cleavage rates as a function of promoiety design (see Figure S13 in Supporting Information for complete data set). Complete stability data for synthesized allopregnanolone prodrugs (Figures S18–S20) are provided in the Supporting Information. Given that their trends closely paralleled the progesterone series, they were not discussed in detail in the main text. […] This unexpected result prompted further investigation using computational modeling, described in the following section. […] Higher pK a values were associated with faster and more complete oxime formation, likely due to enhanced H-bonding which could stabilize the reactive syn-conformer. […] For the heterocyclic pyrrolidine and angle-strained series (Figure C), the release rates closely matched the experimentally determined prodrug half-lives (Table ), which were shorter in human plasma than in PBS. […] Although both 20s and 20t are capable of adopting the reactive syn-rotamer, their self-immolation reactivity diverged due to differences in linker geometry. The cyclopropane in 20s induces angle strain that hinders nucleophilic attack, rendering the compound stable under both PBS and plasma conditions. […] This intriguing result warrants further investigation, with follow-up studies currently in progress. Finally, the nucleophilic capacity of the amine tethers in prodrugs 20w–20z were evaluated based on their ability to cyclize in plasma, as detailed in the Supporting Information Figure S13.
1.2 Stability in Plasma and PBS via LCMS
Procaine (positive control) was purchased from Sigma-Aldrich. HPLC grade MeCN, MeOH, H2O, and FA were purchased from Fischer Scientific. Human plasma (cat. No. […]- […]
0102242) were obtained from BIOIVT. DPBS 1X (no calcium, no magnesium, pH = 7.03) was purchased from Thermo Fischer Scientific. Stock solutions were prepared in 100% DMSO, and suitable dilutions of target analytes were prepared in 0.1% FA /MeCN for method development.
For PBS assay Gibco® Dulbecco’s phosphate-buffered saline (DPBS 1X, no calcium, no magnesium, pH = 7.03) was utilized. All experiments were performed in duplicate and results are presented as the average of two experimental replicates.
Procedure for Plasma Stability Assay
Test compounds and positive control (i.e. procaine) were dissolved in DMSO to make a 10 mM stock solution and subsequently diluted to 500 μM in 50% MeCN and PBS. […] The supernatant was transferred to an LC-MS vial and analyzed by LC/MS-MS. […]

[4] = Aqueous solubility by visual inspection in acetate buffer (pH 5); conditions: for solubility: sodium acetate buffer, pH 5, aqueous buffer, thermodynamic from solid
Procedure: For the solubility assessment, acetate buffer (pH 5) was selected as the media of choice to ensure prodrug stability during analysis.
High aqueous solubility was determined by visual inspection of 5 mg solid material in 0.5 mL
sodium acetate buffer solution. This media was selected to ensure stability of prodrugs during
dissolution in 50 mg/mL aqueous media.

[5] = PBS stability assay at 37 °C via LC-MS/MS; format: physicochemical; conditions: 37 °C; for half-life at 3 µM: phosphate-buffered saline (DPBS), pH 7.03, PBS
Procedure: (§2) To address this, prodrug stability was further evaluated in human plasma at 37 °C using liquid chromatography–tandem mass spectrometry (LC-MS/MS). For direct comparison, a parallel screen was conducted in PBS under identical conditions (Table ). To prevent premature degradation prior to LC-MS/MS analysis, acetonitrile containing formic acid was used as a quenching solution to acidify and stabilize the prodrugs in vials. […] This limitation in detection, along with the need for a more uniform and broadly applicable assessment across all compounds, prompted us to monitor the formation of the parent oxime as an alternative readout.
(§3) Stability experiments in human plasma and PBS were performed via liquid chromatography-tandem mass spectrometry (LC-MS/MS) to determine and compare rate of cleavage of progesterone prodrugs as well as selected allopregnanolone prodrugs (3 µM) when incubated at 37 °C. All experiments were performed in duplicate and results are presented as the average of two experimental replicates.

[6] = Plasma stability assay at 37 °C via LC-MS/MS, human plasma; format: in vitro ADME;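 also: prodrugs at 3 µM incubated in human plasma at 37 °C, intact prodrug quantified by LC-MS/MS over time, values are means of duplicate runs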
Procedure: as §2, §3

[7] = pH 5, acetate buffer pH 5.0, RT, 1 mg/mL, HPLC 254 nm, read-out: t1/2 in acetate buffer at RT (Tables S5-S8) (converted)
[8] = pH 5, acetate buffer pH 5.0, rt, read-out: t½: pH 5.0, rt (Table S23) (converted)
[9] = pH 7.03, DPBS pH 7.03, RT, 1 mg/mL, HPLC 254 nm, read-out: t1/2 in PBS buffer at RT (Tables S1-S4) (converted)
[10] = pH 7.03, PBS, rt, read-out: t½: PBS, rt (Table S23) (converted)

Row | SMILES | half-life at 1 mg/mL [1, 7] [h] | half-life at 1 mg/mL ([1]; pH 5, acetate buffer pH 5.0, rt, HPLC (UV), read-out: Half-life (t½) pH 5.0 rt (converted)) [h] | half-life at 1 mg/mL [1, 8] [h] | half-life at 1 mg/mL [2, 9] [h] | half-life at 1 mg/mL ([2]; pH 7.03, PBS, rt, HPLC (UV), read-out: Half-life (t½) PBS rt (converted)) [h] | half-life at 1 mg/mL [2, 10] [h] | Formation/release of oxime 3 in human plasma, in words [3] | Solubility pH 5.0, rt ([4]; sodium acetate buffer pH 5, rt, visual inspection) | solubility [4] [µg/mL] | PBS, 37 °C %rem. at 2h (Table S23) ([5]; PBS, 2 h) [%] | half-life at 3 µM ([5]; 3 µM, LC-MS/MS, read-out: t1/2 in PBS at 37 °C (Tables S14-S17) (converted)) [h] | half-life at 3 µM ([5]; read-out: PBS, 37 °C t½ (Table S23) (converted)) [h] | t1/2 in human plasma at 37 °C (Tables S10-S13, S18) ([6]; 3 µM, LC-MS/MS) | Plasma, 37 °C %rem. at 2h (Table S23) ([6]; 2 h) | half-life at 3 µM ([6]; human, plasma, read-out: Plasma, 37 °C t½ (Table S23) (converted)) [h]
1 | CNCCN(CCN1CCCC1)C(=O)O/N=C(\C)[C@H]1CC[C@H]2[C@@H]3CCC4=CC(=O)CC[C@]4(C)[C@H]3CC[C@]12C.O=C(O)C(F)(F)F [20h] | 105 | 105 | 105 | 7.23 ± 1.9 | 7.23 | 7.23 | rapid, first-order release | degrades | < 10000 |  |  |  |  |  | 
2 | C/C(=N\OC(=O)N(C)CC[C@@H]1CCCN1)[C@H]1CC[C@H]2[C@@H]3CCC4=CC(=O)CC[C@]4(C)[C@H]3CC[C@]12C.O=C(O)C(F)(F)F [20n] | > 168 |  | > 168 | > 24 |  | > 24 | low levels of oxime |  | > 10000 | 77 | 26.5 | 26.5 | stable | stable | > 24
